# Experimental data published in paper PMC10745882, “Investigation of Drug-Interaction Potential for Arthritis Dietary Supplements: Chondroitin Sulfate, Glucosamine, and Methylsulfonylmethane” (Molecules, 2023).
# Columns and labels:
# [1] = biological target: T1, CYP2D6 (Homo sapiens, UniProt P10635); set-up: method as in PMID 34821124, PMID 29488228; conditions: previous studies; cited from earlier work
# T1 construct: Pooled human liver microsomes were purchased from BD Gentest; tissue BD Gentest; host or cells: pooled human liver microsomes
# [2] = set-up: method as in PMID 25417766; conditions: rats; 1:4 (paracetamol:GCS) ratio; cited from earlier work
# [3] = set-up: method as in doi:10.4172/2155-9600.1000748, PMID 16168682, PMID 19912983; conditions: common daily dose 1500 mg/day; cited from earlier work
# [4] = biological target: T1, CYP2D6; test: CYP inhibition assay in human liver microsomes (LC-MS/MS cocktail), dextromethorphan to dextrorphan; type: in vitro ADME
# Procedure: (§1) For the experimental method, the reference method was used. Briefly, incubation mixtures were composed of 0.5 mg/mL human liver microsomes; varying concentrations of CS in DW (0.1, 0.3, 1, 3, 10, 30, 100, and 200 µM) or MSM in DW (0.1, 0.3, 1, 3, 10, 30, 100, 300, and 1000 µM) or GCS in DMSO (0.1, 0.3, 1, 3, 10, 30, 100, 300, and 1000 µM); a substrate mixture in DMSO (40 µM phenacetin for CYP1A2; 2.5 µM coumarin for CYP2A6; 80 µM bupropion for CYP2B6; 10 µM diclofenac for CYP2C9; 80 µM [±]-mephenytoin for CYP2C19; 5 µM dextromethorphan for CYP2D6; 2.5 µM midazolam and 30 µM testosterone for CYP3A4); and an NADPH generating system (NGS; 0.1 M glucose-6-phosphate, 10 mg/mL β-NADP^+, and 1 U/mL glucose-6-phosphate dehydrogenase) in a total volume of 200 µL potassium phosphate buffer (0.1 M, pH 7.4). The reaction mixture, excluding NGS, underwent pre-incubation at 37 °C for 5 min, followed by further incubation with NGS for 30 min in a water bath. Well-established selective CYP inhibitors were employed as positive controls (40 µM ketoconazole for CYP3A4, 50 µM furafyllin for CYP1A2, 10 µM quinidine for CYP2D6, 125 µM ticlopidine for CYP2C19 and CYP2B6, 10 µM 8-methoxsalen for CYP2A6, and 10 µM sulfaphenazole for CYP2C9). Post incubation, the reaction was halted by adding 50 µL ice-cold 1% formic acid acetonitrile. After centrifugation at 13,200 rpm for 5 min, the supernatant was collected from the sample and subjected to analysis via an LC-MS/MS system. All experiments were performed in triplicate.
# (§2) For the experimental method, the reference method was used. The LC-MS/MS system utilized in this study consisted of an Agilent 1260 binary pump HPLC system coupled with the Agilent 6460 Triple Quadrupole mass spectrometer (Agilent Technologies, Santa Clara, CA, USA), featuring an electrospray ionization source. Chromatographic separation was achieved using a Fortis C8 column (2.1 × 100 mm, 5.0 µm; Fortis Technologies Ltd., Neston, UK). The HPLC mobile phases comprised (A) 0.1% formic acid and (B) 0.1% formic acid in 90% acetonitrile. A gradient elution method was employed with an initial solvent B concentration of 15% and a flow rate of 0.25 mL/min. […] The total run time was 11.0 min, and the injection volume was 5 µL. Mass detection was conducted in the positive ion mode using multiple reaction monitoring (MRM). Specific MRM transitions for each analyte are detailed in Table S4.
# [5] = biological target: T2, CYP2B6 (Homo sapiens, UniProt P20813); test: CYP inhibition assay in human liver microsomes (LC-MS/MS cocktail), bupropion to OH-bupropion; type: in vitro ADME
# T2 construct: Pooled human liver microsomes were purchased from BD Gentest; tissue BD Gentest; host or cells: pooled human liver microsomes
# T2 sequence (P20813 1-491): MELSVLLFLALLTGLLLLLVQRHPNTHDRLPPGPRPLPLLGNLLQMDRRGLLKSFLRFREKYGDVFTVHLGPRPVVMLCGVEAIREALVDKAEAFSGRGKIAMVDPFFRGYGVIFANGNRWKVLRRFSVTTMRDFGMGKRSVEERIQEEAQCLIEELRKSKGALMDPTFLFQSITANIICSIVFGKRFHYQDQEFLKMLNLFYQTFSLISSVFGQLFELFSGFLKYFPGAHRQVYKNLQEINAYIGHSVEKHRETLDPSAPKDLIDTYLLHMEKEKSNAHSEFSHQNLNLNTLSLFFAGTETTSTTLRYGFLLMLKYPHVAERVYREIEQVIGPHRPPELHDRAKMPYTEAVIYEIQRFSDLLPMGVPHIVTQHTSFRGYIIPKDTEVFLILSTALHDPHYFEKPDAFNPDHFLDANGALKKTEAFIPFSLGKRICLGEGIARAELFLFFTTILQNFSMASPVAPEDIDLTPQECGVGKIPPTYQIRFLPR
# Procedure: as §1, §2
# [6] = system: seven CYP isozymes (CYP1A2, CYP2A6, CYP2B6, CYP2C9, CYP2C19, CYP2D6, CYP3A4); test: CYP inhibition assay in human liver microsomes, statements on all tested isozymes; type: in vitro ADME
# Procedure: as §1
# For the experimental method, the reference method was used. The LC-MS/MS system utilized in this study consisted of an Agilent 1260 binary pump HPLC system coupled with the Agilent 6460 Triple Quadrupole mass spectrometer (Agilent Technologies, Santa Clara, CA, USA), featuring an electrospray ionization source. Chromatographic separation was achieved using a Fortis C8 column (2.1 × 100 mm, 5.0 µm; Fortis Technologies Ltd., Neston, UK). The HPLC mobile phases comprised (A) 0.1% formic acid and (B) 0.1% formic acid in 90% acetonitrile. […]
# [7] = biological target: T3, CYP3A4(T) (Homo sapiens, UniProt P08684); test: CYP inhibition assay in human liver microsomes (LC-MS/MS cocktail), testosterone to 6-β-OH-Testosterone; type: in vitro ADME
# T3 construct: Pooled human liver microsomes were purchased from BD Gentest; tissue BD Gentest; host or cells: pooled human liver microsomes
# Procedure: as §1, §2
# [8] = system: CYP2C9; set-up: method as in PMID 34821124, PMID 29488228; conditions: previous studies; cited from earlier work
# [9] = set-up: method as in PMID 16942821, PMID 37489348, PMID 31331587; conditions: typical doses as monotherapy; cited from earlier work
# [10] = cited from earlier work
# [11] = biological target: T4, CYP2C19 (Homo sapiens, UniProt P33261); test: CYP inhibition assay in human liver microsomes (LC-MS/MS cocktail), mephenytoin to 4-OH-mephenytoin; type: in vitro ADME
# T4 construct: Pooled human liver microsomes were purchased from BD Gentest; tissue BD Gentest; host or cells: pooled human liver microsomes
# Procedure: as §1, §2
# T1 sequence (P10635 whole entry): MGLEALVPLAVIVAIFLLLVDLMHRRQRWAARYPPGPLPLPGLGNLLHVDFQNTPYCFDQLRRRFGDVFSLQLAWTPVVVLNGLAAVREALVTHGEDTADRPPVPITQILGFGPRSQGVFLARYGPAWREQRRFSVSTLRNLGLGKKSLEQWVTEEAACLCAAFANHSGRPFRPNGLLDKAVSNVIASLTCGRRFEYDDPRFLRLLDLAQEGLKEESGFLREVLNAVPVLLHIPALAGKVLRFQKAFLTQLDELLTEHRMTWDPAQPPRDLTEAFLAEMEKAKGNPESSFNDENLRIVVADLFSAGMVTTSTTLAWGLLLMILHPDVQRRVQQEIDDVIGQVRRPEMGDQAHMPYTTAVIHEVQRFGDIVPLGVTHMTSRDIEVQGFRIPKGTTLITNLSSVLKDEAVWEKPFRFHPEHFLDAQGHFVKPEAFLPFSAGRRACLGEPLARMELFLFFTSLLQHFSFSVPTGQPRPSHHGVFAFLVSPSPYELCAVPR
# T4 sequence (P33261 whole entry): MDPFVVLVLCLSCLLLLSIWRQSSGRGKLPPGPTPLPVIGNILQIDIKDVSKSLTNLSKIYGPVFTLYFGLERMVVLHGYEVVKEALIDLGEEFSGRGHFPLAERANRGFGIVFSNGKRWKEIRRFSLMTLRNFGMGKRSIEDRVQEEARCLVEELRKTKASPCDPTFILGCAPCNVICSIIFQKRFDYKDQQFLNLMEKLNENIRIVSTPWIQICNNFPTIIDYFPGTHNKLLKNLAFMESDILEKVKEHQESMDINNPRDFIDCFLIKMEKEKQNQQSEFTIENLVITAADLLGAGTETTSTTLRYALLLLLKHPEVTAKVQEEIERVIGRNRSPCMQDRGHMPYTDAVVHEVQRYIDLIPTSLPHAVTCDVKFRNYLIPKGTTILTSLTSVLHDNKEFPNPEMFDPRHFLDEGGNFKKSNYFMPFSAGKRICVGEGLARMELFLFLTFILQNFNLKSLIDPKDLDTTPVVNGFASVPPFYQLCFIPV
# T3 sequence (P08684 whole entry): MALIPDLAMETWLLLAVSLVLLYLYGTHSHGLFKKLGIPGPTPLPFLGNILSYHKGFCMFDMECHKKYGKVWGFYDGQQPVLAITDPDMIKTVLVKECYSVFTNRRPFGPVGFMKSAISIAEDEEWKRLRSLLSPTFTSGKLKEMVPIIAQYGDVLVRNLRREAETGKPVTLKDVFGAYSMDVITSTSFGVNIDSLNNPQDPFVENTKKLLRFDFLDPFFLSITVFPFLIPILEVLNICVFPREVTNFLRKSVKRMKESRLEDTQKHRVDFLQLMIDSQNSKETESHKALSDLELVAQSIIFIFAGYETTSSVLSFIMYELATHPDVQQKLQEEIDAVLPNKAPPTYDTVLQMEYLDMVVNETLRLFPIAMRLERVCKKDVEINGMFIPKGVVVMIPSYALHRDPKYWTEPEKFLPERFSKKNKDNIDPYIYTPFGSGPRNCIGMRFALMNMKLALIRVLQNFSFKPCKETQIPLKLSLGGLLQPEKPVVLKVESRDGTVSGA
compound,measurement,setting,value
"N[C@H]1C(O)O[C@H](CO)[C@@H](O)[C@@H]1O (some centres unmarked) [GCS, glucosamine]",inhibitory effects on CYP2D6,[1],no inhibitory effects
same,paracetamol's AUC when co-administered with GCS,[2],increase
same,paracetamol's maximum plasma concentration when co-administered with GCS,[2],increase
same,maximum plasma concentrations,[3],~9 µM
same,"Remaining Activities (% of Control, n = 3)",[4]; test substance 0.3 μM,107.6 ± 7.4 % of Control
same,"Remaining Activities (% of Control, n = 3)",[4]; test substance 1 μM,104.9 ± 1.0 % of Control
same,"Remaining Activities (% of Control, n = 3)",[4]; test substance 3 μM,106.2 ± 3.7 % of Control
same,"Remaining Activities (% of Control, n = 3)",[4]; test substance 10 μM,101.6 ± 0.5 % of Control
same,"Remaining Activities (% of Control, n = 3)",[4]; test substance 30 μM,100.4 ± 1.4 % of Control
same,"Remaining Activities (% of Control, n = 3)",[4]; test substance 100 μM,102.6 ± 1.7 % of Control
same,"Remaining Activities (% of Control, n = 3)",[4]; test substance 300 μM,100.6 ± 1.3 % of Control
same,"Remaining Activities (% of Control, n = 3)",[4]; test substance 1000 μM,99.5 ± 4.8 % of Control
same,"Remaining Activities (% of Control, n = 3)",[5]; test substance 0.3 μM,121.0 ± 11.6 % of Control
same,"Remaining Activities (% of Control, n = 3)",[5]; test substance 1 μM,116.2 ± 5.8 % of Control
same,"Remaining Activities (% of Control, n = 3)",[5]; test substance 3 μM,114.3 ± 3.5 % of Control
same,"Remaining Activities (% of Control, n = 3)",[5]; test substance 10 μM,108.2 ± 3.1 % of Control
same,"Remaining Activities (% of Control, n = 3)",[5]; test substance 30 μM,107.8 ± 1.3 % of Control
same,"Remaining Activities (% of Control, n = 3)",[5]; test substance 100 μM,111.2 ± 2.3 % of Control
same,"Remaining Activities (% of Control, n = 3)",[5]; test substance 300 μM,105.6 ± 1.8 % of Control
same,"Remaining Activities (% of Control, n = 3)",[5]; test substance 1000 μM,103.5 ± 9.2 % of Control
same,"inhibitory effects on CYP1A2, CYP2A6, CYP2B6, CYP2C9, CYP2C19, CYP2D6, and CYP3A4",[6],no inhibitory effects
same,"Remaining Activities (% of Control, n = 3)",[7]; test substance 0.3 μM,92.8 ± 0.6 % of Control
same,"Remaining Activities (% of Control, n = 3)",[7]; test substance 1 μM,92.4 ± 0.9 % of Control
same,"Remaining Activities (% of Control, n = 3)",[7]; test substance 3 μM,91.1 ± 3.1 % of Control
same,"Remaining Activities (% of Control, n = 3)",[7]; test substance 10 μM,91.7 ± 4.4 % of Control
same,"Remaining Activities (% of Control, n = 3)",[7]; test substance 30 μM,91.8 ± 3.0 % of Control
same,"Remaining Activities (% of Control, n = 3)",[7]; test substance 100 μM,84.8 ± 7.8 % of Control
same,"Remaining Activities (% of Control, n = 3)",[7]; test substance 300 μM,82.1 ± 3.4 % of Control
same,"Remaining Activities (% of Control, n = 3)",[7]; test substance 1000 μM,80.0 ± 6.6 % of Control
same,inhibitory effects on CYP2C9,[8],no inhibitory effects
same,adverse effects in clinical trials,[9],do not exhibit significant adverse effects
same,cases of INR elevation when coumarin anticoagulants were combined with GCS,[10]; EFSA scientific opinion,40 cases
same,INR on co-administration with warfarin,"[10]; interaction case, co-administration of CS and GCS with warfarin",elevated INR
same,"Remaining Activities (% of Control, n = 3)",[11]; test substance 0.3 μM,128.4 ± 27.9 % of Control
same,"Remaining Activities (% of Control, n = 3)",[11]; test substance 1 μM,102.5 ± 3.0 % of Control
same,"Remaining Activities (% of Control, n = 3)",[11]; test substance 3 μM,102.6 ± 8.8 % of Control
same,"Remaining Activities (% of Control, n = 3)",[11]; test substance 10 μM,101.9 ± 4.3 % of Control
same,"Remaining Activities (% of Control, n = 3)",[11]; test substance 30 μM,90.5 ± 8.7 % of Control
same,"Remaining Activities (% of Control, n = 3)",[11]; test substance 100 μM,100.3 ± 3.7 % of Control
same,"Remaining Activities (% of Control, n = 3)",[11]; test substance 300 μM,95.5 ± 5.6 % of Control
same,"Remaining Activities (% of Control, n = 3)",[11]; test substance 1000 μM,88.7 ± 7.3 % of Control
